In patent US20050182073A1, “5-Phenylpyrimidines” (priority 2004, published 2005):

Test: logP determination by HPLC (EEC Directive 79/831 Annex V. A8)
Type: physicochemical
Conditions: gradient method, acetonitrile/0.1% aqueous phosphoric acid
Protocol: The logP values were determined in accordance with EEC Directive 79/831 Annex V. A8 by HPLC (gradient method, acetonitrile/0.1% aqueous phosphoric acid).

With `CC(C)Cc1nc([S+](C)[O-])nc(Cl)c1-c1ccc(F)cc1Cl` (stereo not shown) [4-chloro-5-(2-chloro-4-fluorophenyl)-6-isobutyl-2-(methylsulphinyl)pyrimidine] as the compound, how does the chromatographic logP read?
The chromatographic logP was 3.27.

Which chromatographic logP does the source give for `CC(C)Cc1nc(-n2cncn2)nc(Cl)c1-c1ccc(F)cc1Cl` [Example 1, 4-chloro-5-(2-chloro-4-fluorophenyl)-6-isobutyl-2-(1H-1,2,4-triazol-1-yl)pyrimidine] here?
The chromatographic logP was 3.79.

Which chromatographic logP does the source give for `CSc1nc(Cl)c(-c2ccc(F)cc2Cl)c(CC(C)C)n1` [II-2, 4-chloro-5-(2-chloro-4-fluorophenyl)-6-isobutyl-2-(methylthio)pyrimidine] here?
Its chromatographic logP is 5.67.

With `CC(C)Cc1nc(S(C)(=O)=O)nc(Cl)c1-c1ccc(F)cc1Cl` [III-2a, 4-chloro-5-(2-chloro-4-fluorophenyl)-6-isobutyl-2-(methylsulphonyl)pyrimidine] as the compound, how does the chromatographic logP read?
The chromatographic logP was 3.82.
